From paper PMC12040169 (PLOS Biology, 2025)

Experiment: in vitro
Conditions: human, hela cells, % viability

Row | SMILES | viability at 28.5 h, 10 µM
1 | Cc1ccc(CCC2CCN(C(=O)c3ccc(O)nc3)CC2)cc1 [CBK296724] | 94.4%
2 | CCc1ccc(-c2csc(NS(=O)(=O)c3cccc(C(=O)O)c3)n2)cc1 [CBK296726] | 91%
3 | Cc1ccc(CSCCNS(=O)(=O)c2ccsc2C(=O)O)cc1 [CBK296727] | 92.6%
4 | COc1ccccc1Oc1ccc(NS(=O)(=O)c2cccc(C(=O)O)c2)cc1 [CBK296728] | 108%
5 | Cc1nc(NC(=O)c2ccoc2)sc1C [CBK296729] | 103%
6 | O=C(NCc1ccccc1F)c1cccc(CN2C(=O)CSC2=O)c1 [CBK296730] | 100%
7 | CCOc1ccc(-c2nc(CSc3n[nH]c(=O)n3Cc3ccccc3)cs2)cc1 [CBK296737] | 102%
8 | CC(c1ccc(S(C)(=O)=O)cc1)N(C)C(=O)COc1ccc2ccccc2c1 (centres unmarked) [CBK296738] | 103%
9 | Cc1ccc(-c2n[nH]c(=S)n2CCC(=O)N2CCC(c3c[nH]c4ccccc34)CC2)cc1 [CBK296739] | 86.8%
10 | O=C(CCN1C(=O)COc2ccccc21)Nc1ccnn1Cc1ccccc1Br [CBK296740] | 99.8%
11 | COc1ccc(-c2nc(COC(=O)c3cccnc3N)cs2)cc1OC [CBK296741] | 82.6%
12 | Nc1nc(Cn2nc(-c3ccc(F)cc3)oc2=O)nc(Nc2ccc(F)cc2)n1 [CBK296742] | 91.6%
13 | Cc1ccc(C)c(NC(=O)C(C)Sc2nc3ccccc3nc2C)c1 (centres unmarked) [CBK296744] | 106%
14 | CCCNC(=O)C(C)Sc1nc2ccsc2c(=O)n1CC (centres unmarked) [CBK296745] | 105%
15 | COc1ccccc1NC(=O)C1CCN(C(=O)OC(C)(C)C)CC1 [CBK296746] | 90.5%
16 | CC1CC1C(=O)NCC(=O)N1CCN(S(=O)(=O)c2ccccc2[N+](=O)[O-])CC1 (centres unmarked) [CBK296747] | 90.4%
17 | CC(Nc1ccc2[nH]c(=O)[nH]c2c1)C(=O)N1CCN(c2ccccc2)CC1 (centres unmarked) [CBK296748] | 99.4%
18 | N#Cc1ccccc1CSCCNC(=O)c1ccc(NC(=O)c2ccco2)s1 [CBK296749] | 80.8%
19 | C=CCn1c(Cc2csc(NC(=O)c3ccc(OC)cc3O)n2)n[nH]c1=S [CBK296752] | 104%
20 | COc1ccc(S(=O)(=O)N2CCN(C(C(=O)O)c3ccc(C)cc3)CC2)cc1 (centres unmarked) [CBK296753] | 104%
21 | COc1cc(N)c(Cl)cc1C(=O)OCc1cc2ccc(C)cc2nc1Cl [CBK296755] | 89.7%

Row | SMILES | viability at 28.5 h, 10 µM
22 | NC(=O)C1CCN(C(=O)C2=NN(c3ccccc3)C(c3ccccc3)C2)CC1 (centres unmarked) [CBK296760] | 99.1%
23 | COc1cc(NC(=O)CC2(C(=O)O)CCCCC2)ccc1N1CCCC1=O [CBK296761] | 109%
24 | CCc1nnc(COC(=O)c2ccccc2NC(=O)Cc2ccccc2)o1 [CBK296762] | 81.5%
25 | Cc1ccc(-n2c(C)cc(C(=O)CSc3n[nH]c(=O)n3C3CC3)c2C)cc1C [CBK296764] | 92.3%
26 | Cn1c(Cc2csc(NC(=O)CNC(=O)Cc3ccccc3)n2)n[nH]c1=S [CBK296765] | 102%
27 | Cc1ccc(CC(=O)Nc2nc(Cc3n[nH]c(=S)n3C)cs2)cc1 [CBK296766] | 90.5%
28 | O=C(O)c1cc(S(=O)(=O)NCc2ccc(Cl)cc2Cl)ccc1O [CBK296924] | 94.7%
29 | CCn1c(-c2ccc(C)cc2)cnc1SCC(=O)N1CCN(C(C)=O)CC1 [CBK296925] | 110%
30 | CCCCN(C(=O)c1cc(C)nc2ccccc12)c1ccccc1 [CBK296926] | 89.9%
31 | Cc1ccc(C2=NN(C(=O)CCC(=O)O)C(c3cc4cccc(C)c4[nH]c3=O)C2)cc1 (centres unmarked) [CBK296927] | 91%
32 | CC(=O)Nc1ccc(NC(=O)CC2(CC(=O)O)CCCC2)cc1 [CBK296931] | 97.3%
33 | Cc1ccc(Cn2ccsc2=NC(=O)c2cc(S(=O)(=O)N3CCOCC3)ccc2C)cc1 [CBK296935] | 101%
34 | O=C(Cn1nc(C(=O)O)c2ccccc2c1=O)c1ccc(S(=O)(=O)N2CCOCC2)cc1 [CBK296939] | 90.2%
35 | CCN(CC)C(=O)c1cccc(NS(=O)(=O)c2cccc(C(=O)O)c2)c1 [CBK296943] | 97.6%
36 | CC1CCCC(C)N1S(=O)(=O)c1ccc(NS(=O)(=O)c2cccc(C(=O)O)c2)cc1 (centres unmarked) [CBK296944] | 94.6%
37 | COc1cc(C=c2sc(=CC(=O)C(C)(C)C)[nH]c2=O)ccc1OCC(=O)O [CBK296948] | 104%
38 | O=C(Cc1ccc(Cl)cc1Cl)Nc1ccc(-c2nnc3n2CCCCC3)cc1 [CBK296949] | 94.8%
39 | CC(C)NS(=O)(=O)c1ccc(NS(=O)(=O)c2cccc(C(=O)O)c2)cc1 [CBK296950] | 84.3%
40 | Cc1ccc(NS(=O)(=O)c2cc(C(=O)O)ccc2Cl)cc1S(=O)(=O)N1CCOCC1 [CBK296954] | 113%
41 | Cc1nc(SCCN2C(=O)c3ccccc3S2(=O)=O)c2ccccc2n1 [CBK296958] | 90%
